Source: patent publication US10765114B2, “4-amino-6-(pyridyl and 2-substitutedphenyl)-picolinates and 6-amino-2-(pyridyl and 2-substitutedphenyl)-pyrimidine-4-carboxylates and their use as herbicides” (Dow AgroSciences LLC, priority 2013, dated 2020)

The compounds below were run on Key Broadleaf Weed and Crop Species (assay: Post-Emergent Test II (Table 5)). Conditions: Abutilon theophrasti, post-emergence, 336 h, ABUTH: velvetleaf (Abutilon theophrasti), application rate 70 (kg ai/ha; footnote: g ai/ha), read-out: Visual Growth Reduction (%) 14 Days After Application ABUTH.
Assay type: in vivo
Outline: (§1)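 Visual injury ratings (0 = no injury, 100 = complete kill) were taken 14 days after treatment relative to untreated plants. Seedlings at the first or second true leaf stage received an overhead spray at 187 L/ha, and solvent-blank sprayed plants served as controls.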
Compound `COC(=O)c1nc(-c2ccc(I)c(F)c2C)cc(N)c1Cl` [Compound 25, methyl 4-amino-3-chloro-6-(3-fluoro-4-Iodo-2-methylphenyl)picolinate] has a pest or weed control at 70 g/ha of 95 to 100%.

Same assay, conditions: Abutilon theophrasti, post-emergence, 336 h, ABUTH: velvetleaf (Abutilon theophrasti), application rate 140 (kg ai/ha; footnote: g ai/ha), read-out: Visual Growth Reduction (%) 14 Days After Application ABUTH
For `COC(=O)c1nc(-c2ccc(I)c(F)c2C)cc(N)c1Cl` [Compound 25, methyl 4-amino-3-chloro-6-(3-fluoro-4-Iodo-2-methylphenyl)picolinate], the pest or weed control at 140 g/ha was 95 to 100%.

Same assay, conditions: Amaranthus retroflexus, post-emergence, 336 h, AMARE: redroot pigweed (Amaranthus retroflexus), application rate 70 (kg ai/ha; footnote: g ai/ha), read-out: Visual Growth Reduction (%) 14 Days After Application AMARE
Compound `COC(=O)c1nc(-c2ccc(I)c(F)c2C)cc(N)c1Cl` [Compound 25, methyl 4-amino-3-chloro-6-(3-fluoro-4-Iodo-2-methylphenyl)picolinate] has a pest or weed control at 70 g/ha of 95 to 100%.

Same assay, conditions: Amaranthus retroflexus, post-emergence, 336 h, AMARE: redroot pigweed (Amaranthus retroflexus), application rate 140 (kg ai/ha; footnote: g ai/ha), read-out: Visual Growth Reduction (%) 14 Days After Application AMARE
Work on `COC(=O)c1nc(-c2ccc(I)c(F)c2C)cc(N)c1Cl` [Compound 25, methyl 4-amino-3-chloro-6-(3-fluoro-4-Iodo-2-methylphenyl)picolinate] yielded a pest or weed control at 140 g/ha of 95 to 100%.

Same assay, conditions: Brassica napus, post-emergence, 336 h, BRSSS: oilseed rape, canola (Brassica napus), application rate 70 (kg ai/ha; footnote: g ai/ha), read-out: Visual Growth Reduction (%) 14 Days After Application BRSSS
With `COC(=O)c1nc(-c2ccc(I)c(F)c2C)cc(N)c1Cl` [Compound 25, methyl 4-amino-3-chloro-6-(3-fluoro-4-Iodo-2-methylphenyl)picolinate] the pest or weed control at 70 g/ha was 60 to 74%.

Same assay, conditions: Brassica napus, post-emergence, 336 h, BRSSS: oilseed rape, canola (Brassica napus), application rate 140 (kg ai/ha; footnote: g ai/ha), read-out: Visual Growth Reduction (%) 14 Days After Application BRSSS
`COC(=O)c1nc(-c2ccc(I)c(F)c2C)cc(N)c1Cl` [Compound 25, methyl 4-amino-3-chloro-6-(3-fluoro-4-Iodo-2-methylphenyl)picolinate] was tested, and the pest or weed control at 140 g/ha was 75 to 84%.

Same assay, conditions: Chenopodium album, post-emergence, 336 h, CHEAL: lambsquarters (Chenopodium album), application rate 70 (kg ai/ha; footnote: g ai/ha), read-out: Visual Growth Reduction (%) 14 Days After Application CHEAL
Work on `COC(=O)c1nc(-c2ccc(I)c(F)c2C)cc(N)c1Cl` [Compound 25, methyl 4-amino-3-chloro-6-(3-fluoro-4-Iodo-2-methylphenyl)picolinate] yielded a pest or weed control at 70 g/ha of 85 to 94%.

Same assay, conditions: Chenopodium album, post-emergence, 336 h, CHEAL: lambsquarters (Chenopodium album), application rate 140 (kg ai/ha; footnote: g ai/ha), read-out: Visual Growth Reduction (%) 14 Days After Application CHEAL
`COC(=O)c1nc(-c2ccc(I)c(F)c2C)cc(N)c1Cl` [Compound 25, methyl 4-amino-3-chloro-6-(3-fluoro-4-Iodo-2-methylphenyl)picolinate] showed a pest or weed control at 140 g/ha of 85 to 94%.

Same assay, conditions: Euphorbia heterophylla, post-emergence, 336 h, EPHHL: wild poinsettia (Euphorbia heterophylla), application rate 70 (kg ai/ha; footnote: g ai/ha), read-out: Visual Growth Reduction (%) 14 Days After Application EPHHL
`COC(=O)c1nc(-c2ccc(I)c(F)c2C)cc(N)c1Cl` [Compound 25, methyl 4-amino-3-chloro-6-(3-fluoro-4-Iodo-2-methylphenyl)picolinate] showed a pest or weed control at 70 g/ha of 0 to 29%.

Same assay, conditions: Euphorbia heterophylla, post-emergence, 336 h, EPHHL: wild poinsettia (Euphorbia heterophylla), application rate 140 (kg ai/ha; footnote: g ai/ha), read-out: Visual Growth Reduction (%) 14 Days After Application EPHHL
For `COC(=O)c1nc(-c2ccc(I)c(F)c2C)cc(N)c1Cl` [Compound 25, methyl 4-amino-3-chloro-6-(3-fluoro-4-Iodo-2-methylphenyl)picolinate], the pest or weed control at 140 g/ha was 0 to 29%.

Same assay, conditions: Helianthus annuus, post-emergence, 336 h, HELAN: sunflower (Helianthus annuus), application rate 70 (kg ai/ha; footnote: g ai/ha), read-out: Visual Growth Reduction (%) 14 Days After Application HELAN
In the case of `COC(=O)c1nc(-c2ccc(I)c(F)c2C)cc(N)c1Cl` [Compound 25, methyl 4-amino-3-chloro-6-(3-fluoro-4-Iodo-2-methylphenyl)picolinate], the pest or weed control at 70 g/ha is reported as 60 to 74%.

Same assay, conditions: Helianthus annuus, post-emergence, 336 h, HELAN: sunflower (Helianthus annuus), application rate 140 (kg ai/ha; footnote: g ai/ha), read-out: Visual Growth Reduction (%) 14 Days After Application HELAN
`COC(=O)c1nc(-c2ccc(I)c(F)c2C)cc(N)c1Cl` [Compound 25, methyl 4-amino-3-chloro-6-(3-fluoro-4-Iodo-2-methylphenyl)picolinate] gave a pest or weed control at 140 g/ha of 75 to 84%.

Same assay, conditions: Viola tricolor, post-emergence, 336 h, VIOTR: wild pansy (Viola tricolor), application rate 70 (kg ai/ha; footnote: g ai/ha), read-out: Visual Growth Reduction (%) 14 Days After Application VIOTR
Compound `COC(=O)c1nc(-c2ccc(I)c(F)c2C)cc(N)c1Cl` [Compound 25, methyl 4-amino-3-chloro-6-(3-fluoro-4-Iodo-2-methylphenyl)picolinate] has a pest or weed control at 70 g/ha of 0 to 29%.

Same assay, conditions: Viola tricolor, post-emergence, 336 h, VIOTR: wild pansy (Viola tricolor), application rate 140 (kg ai/ha; footnote: g ai/ha), read-out: Visual Growth Reduction (%) 14 Days After Application VIOTR
Work on `COC(=O)c1nc(-c2ccc(I)c(F)c2C)cc(N)c1Cl` [Compound 25, methyl 4-amino-3-chloro-6-(3-fluoro-4-Iodo-2-methylphenyl)picolinate] yielded a pest or weed control at 140 g/ha of 0 to 29%.

These compounds were tested on Key Grass and Sedge Weeds as well as Grass Crops (assay: Post-Emergent Test II (Table 6)). Conditions: post-emergence, 336 h, CYPSS, 70 g ai/ha, 14 days after application, read-out: Visual Growth Reduction (%) 14 Days After Application CYPSS.
Assay type: in vivo
Outline: as §1
`COC(=O)c1nc(-c2ccc(I)c(F)c2C)cc(N)c1Cl` [Compound 25, methyl 4-amino-3-chloro-6-(3-fluoro-4-Iodo-2-methylphenyl)picolinate] gave a pest or weed control at 70 g/ha of 0 to 29%.

Same assay, conditions: post-emergence, 336 h, CYPSS, 140 g ai/ha, 14 days after application, read-out: Visual Growth Reduction (%) 14 Days After Application CYPSS
With `COC(=O)c1nc(-c2ccc(I)c(F)c2C)cc(N)c1Cl` [Compound 25, methyl 4-amino-3-chloro-6-(3-fluoro-4-Iodo-2-methylphenyl)picolinate] the pest or weed control at 140 g/ha was 0 to 29%.

Same assay, conditions: post-emergence, 336 h, DIGSA: crabgrass (Digitaria sanguinalis), 70 g ai/ha, 14 days after application, read-out: Visual Growth Reduction (%) 14 Days After Application DIGSA
For `COC(=O)c1nc(-c2ccc(I)c(F)c2C)cc(N)c1Cl` [Compound 25, methyl 4-amino-3-chloro-6-(3-fluoro-4-Iodo-2-methylphenyl)picolinate], the pest or weed control at 70 g/ha was 0 to 29%.

Same assay, conditions: post-emergence, 336 h, DIGSA: crabgrass (Digitaria sanguinalis), 140 g ai/ha, 14 days after application, read-out: Visual Growth Reduction (%) 14 Days After Application DIGSA
In the case of `COC(=O)c1nc(-c2ccc(I)c(F)c2C)cc(N)c1Cl` [Compound 25, methyl 4-amino-3-chloro-6-(3-fluoro-4-Iodo-2-methylphenyl)picolinate], the pest or weed control at 140 g/ha is reported as 0 to 29%.

Same assay, conditions: post-emergence, 336 h, ECHSS, 70 g ai/ha, 14 days after application, read-out: Visual Growth Reduction (%) 14 Days After Application ECHSS
`COC(=O)c1nc(-c2ccc(I)c(F)c2C)cc(N)c1Cl` [Compound 25, methyl 4-amino-3-chloro-6-(3-fluoro-4-Iodo-2-methylphenyl)picolinate] showed a pest or weed control at 70 g/ha of 0 to 29%.

Same assay, conditions: post-emergence, 336 h, ECHSS, 140 g ai/ha, 14 days after application, read-out: Visual Growth Reduction (%) 14 Days After Application ECHSS
`COC(=O)c1nc(-c2ccc(I)c(F)c2C)cc(N)c1Cl` [Compound 25, methyl 4-amino-3-chloro-6-(3-fluoro-4-Iodo-2-methylphenyl)picolinate] gave a pest or weed control at 140 g/ha of 0 to 29%.

Same assay, conditions: post-emergence, 336 h, ORYSS (crop), 70 g ai/ha, 14 days after application, read-out: Visual Growth Reduction (%) 14 Days After Application ORYSS
With `COC(=O)c1nc(-c2ccc(I)c(F)c2C)cc(N)c1Cl` [Compound 25, methyl 4-amino-3-chloro-6-(3-fluoro-4-Iodo-2-methylphenyl)picolinate] the pest or weed control at 70 g/ha was 0 to 29%.

Same assay, conditions: post-emergence, 336 h, ORYSS (crop), 140 g ai/ha, 14 days after application, read-out: Visual Growth Reduction (%) 14 Days After Application ORYSS
For `COC(=O)c1nc(-c2ccc(I)c(F)c2C)cc(N)c1Cl` [Compound 25, methyl 4-amino-3-chloro-6-(3-fluoro-4-Iodo-2-methylphenyl)picolinate], the pest or weed control at 140 g/ha was 0 to 29%.

Same assay, conditions: post-emergence, 336 h, SETFA: giant foxtail (Setaria faberi), 70 g ai/ha, 14 days after application, read-out: Visual Growth Reduction (%) 14 Days After Application SETFA
In the case of `COC(=O)c1nc(-c2ccc(I)c(F)c2C)cc(N)c1Cl` [Compound 25, methyl 4-amino-3-chloro-6-(3-fluoro-4-Iodo-2-methylphenyl)picolinate], the pest or weed control at 70 g/ha is reported as 0 to 29%.

Same assay, conditions: post-emergence, 336 h, SETFA: giant foxtail (Setaria faberi), 140 g ai/ha, 14 days after application, read-out: Visual Growth Reduction (%) 14 Days After Application SETFA
`COC(=O)c1nc(-c2ccc(I)c(F)c2C)cc(N)c1Cl` [Compound 25, methyl 4-amino-3-chloro-6-(3-fluoro-4-Iodo-2-methylphenyl)picolinate] gave a pest or weed control at 140 g/ha of 0 to 29%.

Same assay, conditions: post-emergence, 336 h, SORVU: grain sorghum (Sorghum vulgare), 70 g ai/ha, 14 days after application, read-out: Visual Growth Reduction (%) 14 Days After Application SORVU
`COC(=O)c1nc(-c2ccc(I)c(F)c2C)cc(N)c1Cl` [Compound 25, methyl 4-amino-3-chloro-6-(3-fluoro-4-Iodo-2-methylphenyl)picolinate] gave a pest or weed control at 70 g/ha of 0 to 29%.

Same assay, conditions: post-emergence, 336 h, SORVU: grain sorghum (Sorghum vulgare), 140 g ai/ha, 14 days after application, read-out: Visual Growth Reduction (%) 14 Days After Application SORVU
For `COC(=O)c1nc(-c2ccc(I)c(F)c2C)cc(N)c1Cl` [Compound 25, methyl 4-amino-3-chloro-6-(3-fluoro-4-Iodo-2-methylphenyl)picolinate], the pest or weed control at 140 g/ha was 0 to 29%.

Same assay, conditions: post-emergence, 336 h, TRZSS (crop), 70 g ai/ha, 14 days after application, read-out: Visual Growth Reduction (%) 14 Days After Application TRZSS
Work on `COC(=O)c1nc(-c2ccc(I)c(F)c2C)cc(N)c1Cl` [Compound 25, methyl 4-amino-3-chloro-6-(3-fluoro-4-Iodo-2-methylphenyl)picolinate] yielded a pest or weed control at 70 g/ha of 0 to 29%.

Same assay, conditions: post-emergence, 336 h, TRZSS (crop), 140 g ai/ha, 14 days after application, read-out: Visual Growth Reduction (%) 14 Days After Application TRZSS
With `COC(=O)c1nc(-c2ccc(I)c(F)c2C)cc(N)c1Cl` [Compound 25, methyl 4-amino-3-chloro-6-(3-fluoro-4-Iodo-2-methylphenyl)picolinate] the pest or weed control at 140 g/ha was 0 to 29%.

Same assay, conditions: post-emergence, 336 h, ZEAMX: maize, corn (Zea mays), 70 g ai/ha, 14 days after application, read-out: Visual Growth Reduction (%) 14 Days After Application ZEAMX
In the case of `COC(=O)c1nc(-c2ccc(I)c(F)c2C)cc(N)c1Cl` [Compound 25, methyl 4-amino-3-chloro-6-(3-fluoro-4-Iodo-2-methylphenyl)picolinate], the pest or weed control at 70 g/ha is reported as 0 to 29%.

Same assay, conditions: post-emergence, 336 h, ZEAMX: maize, corn (Zea mays), 140 g ai/ha, 14 days after application, read-out: Visual Growth Reduction (%) 14 Days After Application ZEAMX
Work on `COC(=O)c1nc(-c2ccc(I)c(F)c2C)cc(N)c1Cl` [Compound 25, methyl 4-amino-3-chloro-6-(3-fluoro-4-Iodo-2-methylphenyl)picolinate] yielded a pest or weed control at 140 g/ha of 0 to 29%.
